Results from US10052415B2, “Tropoelastin for promoting endothelial cell adhesion or migration” (University of Utah Research Foundation, priority 2005, dated 2018).
Ends that are not written are not given here.

Legend:
Assay type in all cases: cell-based
[1] = test system: A2058 human melanoma cells; assay: Cell adhesion assay, A2058 cells; conditions: for adhesion of A2058 cells in comparison to BSA: FIG. 4, coated substrates, peptide 10 μM
Experimental: A2058 cells were assayed for adherence to substrates coated with BSA (control), fibronectin, tropoelastin, or a bioactive fragment of tropoelastin corresponding to a single repeat of the hexameric sequence VGVAPG (SEQ ID No. 5). In comparison to adherence to BSA, A2058 cells adhered to substrates coated with fibronectin tropoelastin, or a bioactive fragment of tropoelastin.
(§1) Cells were harvested with 0.25% trypsin/1 mM EDTA, washed three times in adhesion buffer (0.5% BSA in basal medium), suspended at a working density of 5×10^5/ml in adhesion buffer, and then allowed to recover for 1 h at 37° C. (5% CO2). For integrin-blocking assays, 25 μg/ml anti-integrin antibodies (Chemicon, Temecula, Calif.) or control IgG (Jackson ImmunoResearch Laboratories, Inc, West Grove, Pa.) were added to the cell suspension during the recovery period. During the cell recovery, the coated 96-well plates were washed twice in dPBS and blocked for 1 h at 25° C. in 5.0% BSA (dPBS). The blocking solution was removed, and the wells were washed twice in dPBS. Recovered cells were added to the coated wells in a volume of 100 μl per well and placed at 37° C. for 30 minutes (5% CO2). Following this incubation, the assay plate was inverted and assay wells were washed twice with 100 μl dPBS to remove non-specifically adhered cells. The wells were then fixed in Zamboni fixative, stained with Gill 1 hematoxylin, and overlayed with 80% glycerol. The assay was imaged at 100× magnification, capturing 3 random fields/well on a Zeiss Axiovert 200 inverted microscope equipped with a Zeiss Axiocam digital camera. Readings represent the number of adherent cells/well (average six high powered 100× fields, three taken from each of two separate wells).

[2] = test system: human aortic endothelial cells (HuAEC); assay: Boyden chamber migration assay, HuAEC; conditions: FIG. 3; for migration of HuAECs: 200 ng/ml Tropoelastin, 10 μM peptides, BSA control
Experimental: Migration of HuAECs to BSA, fibronectin, and recombinant tropoelastin was measured.
We assayed the hexamer VGVAPG (SEQ ID No. 5). This hexameric sequence is repeated multiple times within the full length tropoelastin protein. […] We additionally assayed a 17 residue C-terminal fragment of the tropoelastin protein. This 17 amino acid residue is depicted in SEQ ID NO: 6 (IFPGGACLGKACGRKRK).
(§2) Briefly, 16 h before the assay, 70% confluent 75 cm^2 flasks of human melanoma A2058 cell (ATCC, passage 3-12) or human aortic endothelial cells (HAEC; Cambrex, passage 4-7) were kept in basal media (dMEM+0.1% BSA, or EBM-2+1% FCS, respectively). Cells were lifted with 0.25% Trypsin/1 mM EDTA, diluted in 0.5% BSA (dMEM) and washed 3 times in basal media (dMEM+0.1% BSA) or (EBM-2+0.1% FCS,) and recovered in suspension at working density (2×10^6/ml for A2058 or 1.5×10^6 HAEC) for 1 h at 37° C. (5% CO2). For migration-inhibition assays, the cells were preincubated during the recovery period for 30 minutes in 25 μg/ml anti-integrin antibodies (Chemicon, Temecula, Calif.) or control IgG (Jackson ImmunoResearch, Inc.). All migration assays were performed in triplicate in a 48-well Boyden chamber apparatus (NeuroProbe, Cabin John, Md.). The recovered cells were added to the bottom chambers in a volume of 30 μl. The wells were overlayed with an 8 μm-pore polycarbonate membrane (NeuroProbe, Cabin John, Md.) and coated with 100 μg/ml Rat tail collagen (Trevigen, Gaithersburg, Md.) for A2058 cells or acetylated 1% gelatin from porcine skin (Sigma, St. Louis, Mo.) for HAEC. The apparatus was assembled and stored inverted at 37° C. (5 CO2) for a 2 h adhesion-period. The apparatus was re-inverted and 52 μl of the chemoattractants, 10 mg/ml Fibronectin, 200 ng/ml Tropoelastin, 10 μM elastin-derived peptides; VGVAPG (SEQ ID No. 5), and IFPGGACLGKACGRKRK (SEQ ID No. 6 (Cterm peptide) or 0.1% BSA/dMEM (diluent, random migration control), were added to the upper chambers and the migration was allowed to proceed for 2 h in a humidified incubator at 37° C. (5% CO2). The membranes were then removed, fixed in methanol, stained with a Hema 3 stain set (Fisher Scientific, Pittsburgh, Pa.) and mounted migrated-side down to a 50×75 mm glass slide. Before 90% mounting medium (in xylenes) was applied, the non-migrated cells were removed from the exposed, non-migrated face of the membrane with a moistened swab. Readings represent the number of cells migrating through the membrane (the sum of two high power X 20 fields/well, averaged for each sextuplicate-well set).

[3] = test system: A2058 human melanoma cells; assay: Boyden chamber migration assay, A2058 cells; conditions: FIG. 5
Experimental: as §2, with “The apparatus was re-inverted and 52 μl of the chemoattractants, 10 mg/ml Fibronectin, 200 ng/ml Tropoelastin, 10 μM elastin-derived peptides; VGVAPG (SEQ ID No. 5), and IFPGGACLGKACGRKRK (SEQ ID No. 6 (Cterm peptide) or 0.1% BSA/dMEM (diluent, random migration control), were added to the upper chambers and the migration was allowed to proceed for 2 h in a humidified incubator at 37° C. (5% CO2). The membranes were then removed, fixed in methanol, stained with a Hema 3 stain set (Fisher Scientific, Pittsburgh, Pa.) and mounted migrated-side down to a 50×75 mm glass slide. Before 90% mounting medium (in xylenes) was applied, the non-migrated cells were removed from the exposed, non-migrated face of the membrane with a moistened swab.” left out

[4] = test system: human aortic endothelial cells (HuAEC); assay: Cell adhesion assay on coated culture plates, HuAEC; conditions: culture plates coated with 10 ug/ml protein; 0.1% BSA control
Experimental: (§3) Cells were plated on culture plates coated with either 0.1% BSA (as a control), 10 ug/ml fibronectin (FN), or 10 ug/ml recombinant tropoelastin, and assayed for adherence to the coated substrate.
as §1, with “96-well plates were coated in duplicate overnight at 4° C. with 10 μg/ml collagen, fibronectin, tropoelastin, or 0.1% bovine serum albumin (BSA). Cells” for “Cells”

[5] = test system: CHO cells; assay: Cell adhesion assay on coated culture plates, CHO cells; conditions: culture plates coated with 10 ug/ml protein; 0.1% BSA control
Experimental: as §3
as §1, with “96-well plates were coated in duplicate overnight at 4° C. with 10 μg/ml collagen, fibronectin, tropoelastin, or 0.1% bovine serum albumin (BSA). Cells” for “Cells”, “Following this incubation, the assay plate was inverted and assay wells were washed twice with 100 μl dPBS to remove non-specifically adhered cells. The wells were then fixed in Zamboni fixative, stained with Gill 1 hematoxylin, and overlayed with 80% glycerol. The assay was imaged at 100× magnification, capturing 3 random fields/well on a Zeiss Axiovert 200 inverted microscope equipped with a Zeiss Axiocam digital camera.” left out

[6] = test system: human aortic smooth muscle cells (HuAoSMC); assay: Cell adhesion assay on coated culture plates, HuAoSMC; conditions: culture plates coated with 10 ug/ml protein; 0.1% BSA control
Experimental: as §3
as §1, with “96-well plates were coated in duplicate overnight at 4° C. with 10 μg/ml collagen, fibronectin, tropoelastin, or 0.1% bovine serum albumin (BSA). Cells” for “Cells”, “Following this incubation, the assay plate was inverted and assay wells were washed twice with 100 μl dPBS to remove non-specifically adhered cells. The wells were then fixed in Zamboni fixative, stained with Gill 1 hematoxylin, and overlayed with 80% glycerol. The assay was imaged at 100× magnification, capturing 3 random fields/well on a Zeiss Axiovert 200 inverted microscope equipped with a Zeiss Axiocam digital camera.” left out

[7] = test system: human embryonic kidney cells (HEK 293); assay: Cell adhesion assay on coated culture plates, HEK 293 cells; conditions: culture plates coated with 10 ug/ml protein; 0.1% BSA control
Experimental: as §3
as §1, with “96-well plates were coated in duplicate overnight at 4° C. with 10 μg/ml collagen, fibronectin, tropoelastin, or 0.1% bovine serum albumin (BSA). Cells” for “Cells”, “Following this incubation, the assay plate was inverted and assay wells were washed twice with 100 μl dPBS to remove non-specifically adhered cells. The wells were then fixed in Zamboni fixative, stained with Gill 1 hematoxylin, and overlayed with 80% glycerol. The assay was imaged at 100× magnification, capturing 3 random fields/well on a Zeiss Axiovert 200 inverted microscope equipped with a Zeiss Axiocam digital camera.” left out

Row | Substance | level of A2058 adhesion relative to full length tropoelastin ([1]; 10 μM of a single repeat of the hexameric sequence) | adhesion of A2058 cells in comparison to BSA [1] | level of HuAEC migration relative to comparator [2] | migration of HuAECs [2] | level of A2058 migration compared among tropoelastin and fragments [3] | adhesion of HuAEC to the coated substrate [4] | adhesion of CHO cells to the coated substrate [5] | adhesion of HuAoSMC to the coated substrate [6] | adhesion of HEK 293 cells to the coated substrate [7]
1 | VGVAPG | at a level similar to 10 μg/ml of full length tropoelastin | promoted adhesion of A2058 cells | at least as well as, and possibly better than, the fall length tropoelastin protein | promoted migration of endothelial cells | promoted migration of A2058 cell at comparable levels |  |  |  | 
2 | fibronectin [reference compound] |  | adhered |  |  |  | adhered to fibronectin | adhered to fibronectin | adhered to fibronectin | adhered to fibronectin
3 | IFPGGACLGKACGRKRK (chemically synthesized bioactive fragment of tropoelastin) [C-terminal fragment] |  |  | at least as well as, and possibly better than, the fall length tropoelastin protein | promoted migration of endothelial cells | promoted migration of A2058 cell at comparable levels |  |  |  | 
